This is an account of results in publication PMC7151106 (Pharmaceutics, 2020).

One data set deals with T1, OAT3.
T1 construct: host or cells: HEK293
As to the kind of experiment: Substrate specificity / uptake in HEK293-OAT3 cells. Type of data set: in vitro ADME. Conditions: for Substrate for OAT3: HEK293-OAT3 vs mock, ± 20 μM probenecid. On the procedure: (§1) HEK293-mock cells and HEK293 cells overexpressing OAT1 and OAT3 transporters (HEK293-OAT1 and -OAT3, respectively) were seeded in poly-D-lysine-coated 24-well plates at a density of 4 × 10^5 cells/well and cultured for 24 h in DMEM supplemented with 10% FBS and 5 mM non-essential amino acids at 37 °C in 8% CO2 condition.
(§2) For each experiment, the growth medium was discarded after 24 h, and the attached cells were washed with pre-warmed HBSS and incubated with pre-warmed HBSS for 20 min at 37 °C. To confirm the functionality of OAT1 and OAT3, we measured the uptake of 0.1 µM [^3H]PAH and 0.1 µM [^3H]ES, representative substrates for OAT1 and OAT3, respectively, into in the HEK293-mock cells and HEK293-OAT1 and -OAT3 cells, respectively, for 5 min in the presence and absence of 20 µM probenecid, a typical inhibitor for both OAT1 and OAT3 [8, 9]. The cells were then washed three times with 500 μL of ice-cold HBSS immediately after placing the plates on ice. Subsequently, cells were lysed with 10% sodium dodecyl sulfate and mixed with Optiphase cocktail solution overnight. The radioactivity of the cell lysate was measured using a liquid scintillation counter (Microbeta 2; Perkin Elmer Inc., Boston, MA, USA).
(§3) For the concentration dependency in the uptake of DWP16001, the uptake of DWP16001 in a concentration range of 0.5–50 μM dissolved in HBSS was measured for 5 min at 37 °C in the mock cells and HEK293-OAT1 and -OAT3 cells, respectively. After 5 min, the cells were washed three times with 500 μL of ice-cold HBSS immediately after placing the plates on ice.
(§4) In the concentration-dependent uptake studies, the transporter-mediated uptake of DWP16001 was calculated by the subtraction of the transport rates of DWP16001 into the mock cells from those of the HEK293-OAT1 and -OAT3 cells. Kinetic parameters for the OAT1- and OAT3-mediated transport of DWP16001 were determined using the Michaelis-Menten equation [V = Vmax⋅S/(Km + S)] [10].

Data set [1] concerns the target T2, SGLT2 (Homo sapiens, UniProt P31639).
T2 construct: host or cells: CHO
T2 sequence (P31639 1-672): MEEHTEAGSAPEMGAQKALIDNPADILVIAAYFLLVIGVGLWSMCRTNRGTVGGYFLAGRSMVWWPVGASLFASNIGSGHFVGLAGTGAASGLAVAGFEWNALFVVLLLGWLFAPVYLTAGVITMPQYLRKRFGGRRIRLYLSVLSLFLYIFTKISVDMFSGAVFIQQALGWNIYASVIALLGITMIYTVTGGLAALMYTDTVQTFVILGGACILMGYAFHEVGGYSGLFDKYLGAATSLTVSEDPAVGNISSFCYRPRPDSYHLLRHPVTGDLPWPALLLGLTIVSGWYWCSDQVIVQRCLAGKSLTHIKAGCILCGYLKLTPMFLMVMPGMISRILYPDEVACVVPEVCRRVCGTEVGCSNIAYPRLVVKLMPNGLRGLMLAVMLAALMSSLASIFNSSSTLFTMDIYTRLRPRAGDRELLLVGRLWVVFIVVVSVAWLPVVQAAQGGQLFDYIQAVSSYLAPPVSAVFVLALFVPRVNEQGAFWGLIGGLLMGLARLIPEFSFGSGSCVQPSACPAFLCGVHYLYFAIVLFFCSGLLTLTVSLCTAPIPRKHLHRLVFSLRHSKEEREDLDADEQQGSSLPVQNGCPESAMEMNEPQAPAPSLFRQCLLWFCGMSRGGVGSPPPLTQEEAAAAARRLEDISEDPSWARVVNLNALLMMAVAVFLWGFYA
As to the kind of experiment: Recovery of SGLT2 activity after washout following 24 h exposure in CHO-SGLT2 cells. Type of data set: cell-based. The method, then: After 24 h, the RPMI1640 medium was replaced with pre-warmed fresh RPMI1640 medium and incubated for 1, 2, 3, 5, and 6 h, and proceeded another pre-incubation with Na^+-free buffer for 1 h. Then, after replacing Na^+-free buffer with Na^+ gradient buffer containing 10 µM [^14C]AMG, the uptake of [^14C]AMG into the CHO-SGLT2 cells was measured for 2 h. After 2 h of incubation, the radioactivity of the cell lysate was measured following the same sample preparation method described above.

The test system of a further data set is T3, OAT1.
T3 construct: host or cells: HEK293
As to the kind of experiment: Substrate specificity / uptake in HEK293-OAT1 cells. It counts as in vitro ADME. Conditions: for Substrate for OAT1: HEK293-OAT1 vs mock, ± 20 μM probenecid. On the procedure: as §1, §2, §3, §4

Data set [2] has as its target T2, SGLT2. As to the kind of experiment: Inhibition of [14C]AMG uptake in CHO-SGLT2 cells. Type of data set: cell-based. Conditions: for IC50: 10 μM [14C]AMG uptake, 2 h, CHO-SGLT2 minus mock, mean ± SD, triplicate. The method, then:
CHO cells overexpressing SGLT1 and SGLT2 cells (CHO-SGLT1 and -SGLT2) and CHO-mock cells were characterized as previously described. Cells were maintained in RPMI1640 medium supplemented with 10% fetal bovine serum and 200 µg/mL G418 at 37 °C in 5% CO2 conditions. CHO-SGLT1 and -SGLT2 cells were seeded at a density of 1 × 10^5 cells/well in 96-well plates. After 24 h, the growth medium was discarded from the cells, and the cells were washed with pre-warmed Na^+-free buffer (10 mM HEPES, 5 mM Tris, 140 mM choline chloride, 2 mM KCl, 1 mM CaCl2, 1 mM MgCl2, pH7.4) and incubated for 1 h in Na^+-free buffer. After replacing Na^+-free buffer with Na^+ gradient buffer (10 mM HEPES, 5 mM Tris, 140 mM NaCl, 2 mM KCl, 1 mM CaCl2, 1 mM MgCl2, pH7.4) containing 10 µM [^14C]AMG, the uptake of [^14C]AMG into the CHO-mock cells and CHO-SGLT1 and -SLGT2 cells was measured for 0.5, 1, 1.5, 2, and 3 h. After a predetermined incubation time, cells were washed three times with 200 µL of ice-cold Na^+-free buffer immediately after placing the plates on ice. Then, the cells were lysed with 10% SDS, and the cell lysates were mixed with Optiphase cocktail solution. Thereafter, the radioactivity of the cell lysates was measured using a liquid scintillation counter.
After 2 h, cells were washed three times with 200 µL of ice-cold Na^+-free buffer and the cells were lysed with 10% SDS (40 µL), followed by adding Optiphase cocktail solution (200 µL). The radioactivity of the cell lysates was measured using a liquid scintillation counter. The SGLT1 or SGLT2-mediated uptake of [^14C]AMG was calculated by the subtraction of the uptake rates of [^14C]AMG into the mock cells from those of the CHO-SGLT1 and -SLGT2 cells. In the inhibition studies, the percentages of the transport rate of AMG with or without SGLT2 inhibitors were calculated and the data were fitted to an inhibitory effect model. The IC50 (the concentration of the inhibitor to show half-maximal inhibition) values were calculated using Sigma Plot ver.10.0 (Systat Software, Inc.; San Jose, CA, USA).

Where [3] appears, read: HEK293-OAT3 minus mock, 0.5–50 μM, 5 min.
The mark [4] stands for this setting: HEK293-OAT1 minus mock, 0.5–50 μM, 5 min.

Take `OC[C@H]1O[C@@H](c2ccc(F)c(Cc3cc4ccccc4s3)c2)[C@H](O)[C@@H](O)[C@@H]1O` [Ipragliflozin, ipragliflozin]: the “Substrate for OAT3” value in the data set with OAT3 (2 μM, 5 min) is recorded as “not substrates”. Besides, at SGLT2 [1] (0.2–200 nM), the “Time after drug removal to recovery of SGLT2 activity to the control level” value amounted to 4 h. For the same molecule, the “Substrate for OAT1” value in the data set with OAT1 (2 μM, 5 min) was “not substrates”. Further, at SGLT2 [2], the “Selectivity (IC50 Ratio of SGLT1/SGLT2)” value is 261 and the 50% inhibitory concentration (IC50) – broadly, the midpoint of a concentration-inhibition curve – stood at 8.9 ± 1.7 nM.

On to `OC[C@H]1O[C@@H](c2cc(Cc3ccc(C4CC4)cc3)c(Cl)c3c2CCO3)[C@H](O)[C@@H](O)[C@@H]1O` [DWP16001], for which, in the data set on OAT3 (2 μM, 5 min), the “Increase of uptake in HEK293-OAT3 cells compared with mock cells” value is “two-fold” and the “Substrate for OAT3” value is reported as “a substrate”. In addition, in the data set on OAT3 (setting [3]), the “OAT3-mediated uptake: CLint” value was found to be 8.6 µL/min and the “OAT3-mediated uptake: Vmax” value came to 267.9 pmol/min. Also, in the data set with OAT3 (human, HEK293-OAT3 minus mock, 0.5–50 μM, read-out: OAT3-mediated uptake: Km), the Michaelis-Menten constant (Km) (usually the concentration of substrate that gives half-maximal velocity) at 5 min came to 31.1 µM. In addition, the “Time after drug removal at which SGLT2 activity had not recovered” value on SGLT2 [1] (200 nM) is 8 h. In the data set with OAT1 (2 μM, 5 min), the “Increase of uptake in HEK293-OAT1 cells compared with mock cells” value was “two-fold” and the “Substrate for OAT1” value is “a substrate”. For the same molecule, in the data set on OAT1 (setting [4]), the “OAT1-mediated uptake: CLint” value turned out to be 3.1 µL/min and the “OAT1-mediated uptake: Vmax” value worked out at 119.2 pmol/min. For the same molecule, in the data set on OAT1 (human, HEK293-OAT1 minus mock, 0.5–50 μM, read-out: OAT1-mediated uptake: Km), the Michaelis constant (Km) at 5 min was found to be 38 µM. In addition, on SGLT2 [2], the “Selectivity (IC50 Ratio of SGLT1/SGLT2)” value is 667 and the IC50 was found to be 0.8 ± 0.3 nM.
